The results in this text go back to patent US9708314B2, “Heterocyclic amide compound” (NISSAN CHEMICAL INDUSTRIES, LTD., priority 2013, dated 2017).

Common to all, as to format: in vivo
One series relates to Monochoria vaginalis. Kind of series: Test Example 1: herbicidal activity, application before weed generation in submerged conditions. Conditions: Application herbicide amount 320 g/ha; Seventeenth Table. In a few lines:
(§1)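 Submerged pot test: alluvial soil, 4 cm water, seeds sown mixed, 2.5-leaf rice transplanted; emulsion in water applied to surface day of sowing, dose g/ha; greenhouse 25–30° C.; 3 wk; 0–5 rating.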

Series [1] relates to Echinochloa oryzacola Vasing. Described as above. To be noted: Application herbicide amount 320 g/ha; Seventeenth Table. In a few lines:
as §1

The subject of the next series is Scirpus juncoides. The description is as above. Conditions: Application herbicide amount 320 g/ha; Seventeenth Table. In a few lines:
as §1

Series [2] has as its system directly sowed Oryza sativa. Kind of series: Test Example 3: effect on crop by application to foliage (Wagner pot, water depth 0.1-0.5 cm). To be noted: Nineteenth Table. In a few lines:
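A small sprayer delivered the diluted emulsion uniformly to foliage at the chosen rate in g/ha, 14 days after sowing in Wagner pots held at 25–30 °C. Outcome: 0–5 herbicidal-ratio score read three weeks post-treatment.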

The subject of series [3] is transplanted Oryza sativa. The series can be described thus: Test Example 1: effect on crop, application before weed generation in submerged conditions. Conditions: Application herbicide amount 320 g/ha; Seventeenth Table. A digest of the protocol: as §1
For another series, the system named is Stellaria media. The series can be described thus: Test Example 4: herbicidal effect by application to foliage (diluvial soil, plastic box). To be noted: application to foliage, application herbicide amount 320 g/ha. A digest of the protocol:
(§2)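 Read-out is a 0–5 visual grade of herbicidal ratio (5: ≥90%, almost withered; 0: ≤5%) taken three weeks after treatment. Compound was applied as a diluted emulsion to stem and leaf parts of 14-day greenhouse-grown plants (25° C. to 30° C.) at rates expressed as g/ha.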

The next series has as its system Amaranthus retroflexus. Described as above. To be noted: application to foliage, application herbicide amount 320 g/ha. In a few lines: as §2
[4] abbreviates: application herbicide amount 320 g/ha.

Take `Cc1cc(-c2nnc3c(C(=O)Nc4nnc(C)o4)ccc(C(F)(F)F)n23)no1` [1-022]: in the series on Monochoria vaginalis, the “C: Monochoria vaginalis (herbicidal effect grade)” value (from here on “C: Monochoria vaginalis”) is 0 (Herbicidal ratio of 5% or less (almost no effect)). Besides, the “A: Echinochloa oryzicola Vasing. (herbicidal effect grade)” value in series [1] was 2 (Herbicidal ratio of 20% or more and less than 40%). For the same molecule, the “B: Scirpus juncoides (herbicidal effect grade)” value (“B: Scirpus juncoides” below) with Scirpus juncoides was 2 (Herbicidal ratio of 20% or more and less than 40%). Moreover, the “b (directly sowed Oryza sativa) effect on crop grade” value in series [2] (setting [4]) was 2 (Herbicidal ratio of 20% or more and less than 40%). In addition, the “a: transplanted Oryza sativa (effect on crop grade)” value (“a: transplanted Oryza sativa” below) in series [3] was 0 (Herbicidal ratio of 5% or less (almost no effect)). For the same molecule, in the series on Stellaria media, the “P (Stellaria media) herbicidal effect” value is 4 (Herbicidal ratio of 70% or more and less than 90%). In addition, the “N (Amaranthus retroflexus) herbicidal effect” value in the series with Amaranthus retroflexus was 5 (Herbicidal ratio of 90% or more (almost completely withered)).

With `CCOC(=O)Cc1nnc2c(C(=O)Nc3nnc(C)o3)ccc(C(F)(F)F)n12` [1-042], the “C: Monochoria vaginalis” value with Monochoria vaginalis is 2 (Herbicidal ratio of 20% or more and less than 40%). The “A: Echinochloa oryzicola Vasing. (herbicidal effect grade)” value in series [1] is 2 (Herbicidal ratio of 20% or more and less than 40%). Moreover, in the series with Scirpus juncoides, the “B: Scirpus juncoides” value is 2 (Herbicidal ratio of 20% or more and less than 40%). The “b (directly sowed Oryza sativa) effect on crop grade” value in series [2] (setting [4]) is 1 (Herbicidal ratio of 5% or more and less than 20%). Also, in series [3], the “a: transplanted Oryza sativa” value is 0 (Herbicidal ratio of 5% or less (almost no effect)). For the same molecule, the “P (Stellaria media) herbicidal effect” value with Stellaria media was 4 (Herbicidal ratio of 70% or more and less than 90%). In the series with Amaranthus retroflexus, the “N (Amaranthus retroflexus) herbicidal effect” value was 4 (Herbicidal ratio of 70% or more and less than 90%).

Consider `CCC(CC)c1nnc2c(C(=O)Nc3nnc(C)o3)ccc(C(F)(F)F)n12` [1-011], for which the “C: Monochoria vaginalis” value in the series on Monochoria vaginalis is given as 5 (Herbicidal ratio of 90% or more (almost completely withered)). Moreover, the “A: Echinochloa oryzicola Vasing. (herbicidal effect grade)” value in series [1] is 5 (Herbicidal ratio of 90% or more (almost completely withered)). The “B: Scirpus juncoides” value with Scirpus juncoides is 4 (Herbicidal ratio of 70% or more and less than 90%). Further, the “b (directly sowed Oryza sativa) effect on crop grade” value in series [2] (application herbicide amount 400 g/ha) is on record as 0 (Herbicidal ratio of 5% or less (almost no effect)). Further, the “a: transplanted Oryza sativa” value in series [3] was 1 (Herbicidal ratio of 5% or more and less than 20%). Further, in the series on Stellaria media, the “P (Stellaria media) herbicidal effect” value is 5 (Herbicidal ratio of 90% or more (almost completely withered)). In the series on Amaranthus retroflexus, the “N (Amaranthus retroflexus) herbicidal effect” value was 5 (Herbicidal ratio of 90% or more (almost completely withered)).

Turning to `COc1ccc(-c2nnc3c(C(=O)Nc4nnc(C)o4)ccc(C(F)(F)F)n23)cc1` [1-016], the “C: Monochoria vaginalis” value with Monochoria vaginalis was 0 (Herbicidal ratio of 5% or less (almost no effect)). In addition, the “A: Echinochloa oryzicola Vasing. (herbicidal effect grade)” value in series [1] is 4 (Herbicidal ratio of 70% or more and less than 90%). Moreover, the “B: Scirpus juncoides” value in the series on Scirpus juncoides is listed as 0 (Herbicidal ratio of 5% or less (almost no effect)). In series [2] (setting [4]), the “b (directly sowed Oryza sativa) effect on crop grade” value is 1 (Herbicidal ratio of 5% or more and less than 20%). For the same molecule, in series [3], the “a: transplanted Oryza sativa” value was 0 (Herbicidal ratio of 5% or less (almost no effect)). The “P (Stellaria media) herbicidal effect” value in the series on Stellaria media is 5 (Herbicidal ratio of 90% or more (almost completely withered)). Moreover, the “N (Amaranthus retroflexus) herbicidal effect” value in the series with Amaranthus retroflexus is reported as 5 (Herbicidal ratio of 90% or more (almost completely withered)).

On to `Cc1nnc(NC(=O)c2ccc(C(F)(F)F)n3c(-c4ccc(F)cc4)nnc23)o1` [1-044], for which, in the series with Monochoria vaginalis, the “C: Monochoria vaginalis” value was 3 (Herbicidal ratio of 40% or more and less than 70%). Also, the “A: Echinochloa oryzicola Vasing. (herbicidal effect grade)” value in series [1] was 5 (Herbicidal ratio of 90% or more (almost completely withered)). The “B: Scirpus juncoides” value in the series with Scirpus juncoides was 3 (Herbicidal ratio of 40% or more and less than 70%). For the same molecule, the “b (directly sowed Oryza sativa) effect on crop grade” value in series [2] (setting [4]) is 3 (Herbicidal ratio of 40% or more and less than 70%). In addition, the “a: transplanted Oryza sativa” value in series [3] is 1 (Herbicidal ratio of 5% or more and less than 20%). The “P (Stellaria media) herbicidal effect” value with Stellaria media was 4 (Herbicidal ratio of 70% or more and less than 90%). In addition, in the series with Amaranthus retroflexus, the “N (Amaranthus retroflexus) herbicidal effect” value is reported as 5 (Herbicidal ratio of 90% or more (almost completely withered)).

`Cc1nnc(NC(=O)c2ccc(C(F)(F)F)n3c(C[S+]([O-])CC(F)(F)F)nnc23)o1` (centres unmarked) [1-038]: the “C: Monochoria vaginalis” value in the series with Monochoria vaginalis is 1 (Herbicidal ratio of 5% or more and less than 20%). The “A: Echinochloa oryzicola Vasing. (herbicidal effect grade)” value in series [1] is 2 (Herbicidal ratio of 20% or more and less than 40%). In the series on Scirpus juncoides, the “B: Scirpus juncoides” value is 2 (Herbicidal ratio of 20% or more and less than 40%). The “b (directly sowed Oryza sativa) effect on crop grade” value in series [2] (setting [4]) is 2 (Herbicidal ratio of 20% or more and less than 40%). Besides, the “a: transplanted Oryza sativa” value in series [3] was 0 (Herbicidal ratio of 5% or less (almost no effect)). The “P (Stellaria media) herbicidal effect” value with Stellaria media is 5 (Herbicidal ratio of 90% or more (almost completely withered)). Besides, the “N (Amaranthus retroflexus) herbicidal effect” value with Amaranthus retroflexus is 5 (Herbicidal ratio of 90% or more (almost completely withered)).

As for `Cc1nnc(NC(=O)c2ccc(C(F)(F)F)n3c(-c4ccc(Cl)cc4)nnc23)o1` [1-017], in the series on Monochoria vaginalis, the “C: Monochoria vaginalis” value is 0 (Herbicidal ratio of 5% or less (almost no effect)). Also, the “A: Echinochloa oryzicola Vasing. (herbicidal effect grade)” value in series [1] is 3 (Herbicidal ratio of 40% or more and less than 70%). Besides, the “B: Scirpus juncoides” value in the series on Scirpus juncoides is 2 (Herbicidal ratio of 20% or more and less than 40%). For the same molecule, the “b (directly sowed Oryza sativa) effect on crop grade” value in series [2] (setting [4]) is given as 0 (Herbicidal ratio of 5% or less (almost no effect)). Moreover, in series [3], the “a: transplanted Oryza sativa” value is 0 (Herbicidal ratio of 5% or less (almost no effect)). For the same molecule, the “P (Stellaria media) herbicidal effect” value in the series on Stellaria media is 4 (Herbicidal ratio of 70% or more and less than 90%). For the same molecule, in the series with Amaranthus retroflexus, the “N (Amaranthus retroflexus) herbicidal effect” value is 5 (Herbicidal ratio of 90% or more (almost completely withered)).

`Cc1nnc(NC(=O)c2ccc(C(F)(F)F)n3c(Br)nnc23)o1` [1-014]: in the series on Monochoria vaginalis, the “C: Monochoria vaginalis” value is 3 (Herbicidal ratio of 40% or more and less than 70%). Also, in series [1], the “A: Echinochloa oryzicola Vasing. (herbicidal effect grade)” value is 5 (Herbicidal ratio of 90% or more (almost completely withered)). Moreover, the “B: Scirpus juncoides” value in the series on Scirpus juncoides is 4 (Herbicidal ratio of 70% or more and less than 90%). The “b (directly sowed Oryza sativa) effect on crop grade” value in series [2] (setting [4]) was 1 (Herbicidal ratio of 5% or more and less than 20%). Further, the “a: transplanted Oryza sativa” value in series [3] is 0 (Herbicidal ratio of 5% or less (almost no effect)). The “P (Stellaria media) herbicidal effect” value with Stellaria media was 5 (Herbicidal ratio of 90% or more (almost completely withered)). For the same molecule, the “N (Amaranthus retroflexus) herbicidal effect” value in the series on Amaranthus retroflexus was 5 (Herbicidal ratio of 90% or more (almost completely withered)).

In the case of `COCCOCc1nnc2c(C(=O)Nc3nnc(C)o3)ccc(C(F)(F)F)n12` [1-019], the “C: Monochoria vaginalis” value in the series on Monochoria vaginalis is 4 (Herbicidal ratio of 70% or more and less than 90%). Moreover, the “A: Echinochloa oryzicola Vasing. (herbicidal effect grade)” value in series [1] was 5 (Herbicidal ratio of 90% or more (almost completely withered)). For the same molecule, in the series with Scirpus juncoides, the “B: Scirpus juncoides” value is 3 (Herbicidal ratio of 40% or more and less than 70%). Moreover, the “b (directly sowed Oryza sativa) effect on crop grade” value in series [2] (setting [4]) is 4 (Herbicidal ratio of 70% or more and less than 90%). Besides, the “a: transplanted Oryza sativa” value in series [3] is 2 (Herbicidal ratio of 20% or more and less than 40%). In the series on Stellaria media, the “P (Stellaria media) herbicidal effect” value is listed as 5 (Herbicidal ratio of 90% or more (almost completely withered)). For the same molecule, in the series on Amaranthus retroflexus, the “N (Amaranthus retroflexus) herbicidal effect” value was 5 (Herbicidal ratio of 90% or more (almost completely withered)).

As to `CCSc1nnc2c(C(=O)Nc3nnc(C)o3)ccc(C(F)(F)F)n12` [1-032], the “C: Monochoria vaginalis” value in the series with Monochoria vaginalis is 2 (Herbicidal ratio of 20% or more and less than 40%). The “A: Echinochloa oryzicola Vasing. (herbicidal effect grade)” value in series [1] was 5 (Herbicidal ratio of 90% or more (almost completely withered)). Moreover, the “B: Scirpus juncoides” value in the series with Scirpus juncoides is 3 (Herbicidal ratio of 40% or more and less than 70%). Moreover, the “b (directly sowed Oryza sativa) effect on crop grade” value in series [2] (setting [4]) is 2 (Herbicidal ratio of 20% or more and less than 40%). In addition, the “a: transplanted Oryza sativa” value in series [3] is 2 (Herbicidal ratio of 20% or more and less than 40%). Also, the “P (Stellaria media) herbicidal effect” value in the series on Stellaria media is reported as 5 (Herbicidal ratio of 90% or more (almost completely withered)). Moreover, the “N (Amaranthus retroflexus) herbicidal effect” value in the series with Amaranthus retroflexus was 5 (Herbicidal ratio of 90% or more (almost completely withered)).

On to `Cc1nnc(NC(=O)c2ccc(C(F)(F)F)n3c(SC(C)C)nnc23)o1` [1-033], for which the “C: Monochoria vaginalis” value with Monochoria vaginalis is 3 (Herbicidal ratio of 40% or more and less than 70%). In addition, in series [1], the “A: Echinochloa oryzicola Vasing. (herbicidal effect grade)” value is 5 (Herbicidal ratio of 90% or more (almost completely withered)). In addition, the “B: Scirpus juncoides” value with Scirpus juncoides was 4 (Herbicidal ratio of 70% or more and less than 90%). Moreover, the “b (directly sowed Oryza sativa) effect on crop grade” value in series [2] (setting [4]) was 1 (Herbicidal ratio of 5% or more and less than 20%). The “a: transplanted Oryza sativa” value in series [3] is 0 (Herbicidal ratio of 5% or less (almost no effect)). The “P (Stellaria media) herbicidal effect” value with Stellaria media is 5 (Herbicidal ratio of 90% or more (almost completely withered)). For the same molecule, the “N (Amaranthus retroflexus) herbicidal effect” value in the series with Amaranthus retroflexus is reported as 5 (Herbicidal ratio of 90% or more (almost completely withered)).
